Consider one compound from US20110124586A1, “EXTERNAL PREPARATION FOR SKIN, AND WRINKLE-REPAIRING AGENT” (Kao Corporation, priority 2008, published 2011).

Series [1] is described as follows: Ordinary safety test.
The nature of series [2]: Moisture retention test (rate of decrease in water content of solution). Type of series: physicochemical. Particulars: 10 mass % in ion exchanged water; silica gel desiccator 25° C., RH 20%; vs water alone; FIG. 1. How it is done:
In accordance with the following test method, the rate of decrease in water content of lauryl thiogalactoside (compound of Production Example 2) solution was calculated to evaluate moisture-retaining property.
0.5 g of a sample prepared by adjusting a concentration of lauryl thiogalactoside to 10 mass % with ion exchanged water was weighed in a container made of a resin to measure an initial weight (W0).
Next, the sample was left to stand still in a silica gel desiccator (RT; 25° C., RH; 20%) to measure a time-dependent weight (Wt) of the sample.
After the completion of the test, the sample was dried in a dryer (50° C.) for 2 hours and then left to stand still in a silica gel desiccator for 2 hours to measure a dry weight (Ws).
The same operation was conducted for a control sample prepared using water alone, and the rate of decrease in water content was calculated with the following equation.
Rate of decrease in water content (%)=Ht/H0×100(Ht=Wt−Ws, H0=W0−Ws)

Series [3] concerns photoaged skin. The series can be described thus: Wrinkle reduction test on photoaged skin of hairless mice (UVA/UVB irradiation). The series is classed as in vivo. Particulars: photoaged hairless mouse skin. The text has this: A wrinkle-reducing effect in the case of applying a sample containing a base alone or lauryl thiogalactoside (compound of Production Example 2) to photoaged skin was examined by the following test methods.
Ten hairless mice, which were 10 weeks old at the start of the test, were used for each group.
Photoaging was induced by irradiation with UVA and UVB once a day, five times a week for 8 weeks. An irradiation dose was increased every week from 20 J/cm^2 to 25 J/cm^2 and to 30 J/cm^2 for UVA, from 20 mJ/cm^2 to 30 mJ/cm^2 and to 40 mJ/cm^2 for UVB, and the maximum dose was irradiated in Week 3 or later.
A wrinkle-reducing effect was evaluated by a wrinkle score and an epidermal thickness. The wrinkle score was determined in accordance with the method of Bissett et al. (Photochem. Photobiol. 46: 367-378, 1987). In other words, the size and depth of wrinkles were comprehensively evaluated with naked eyes and scored with the following four grades: 3, “large and deep wrinkles can be confirmed”; 2, “wrinkles can be confirmed”; 1, “no wrinkles can be confirmed”; and 0, “normal skin texture can be observed”. […]
A sample containing lauryl thiogalactoside in an amount of 1% in a 50 vol % ethanol aqueous solution (base) was prepared (Example 1). […] Subsequently, after the completion of the application, the wrinkle score was determined. […]

Consider `CCCCCCCCCCCCSC1OC(CO)C(O)C(O)C1O` (stereo not shown) [lauryl thiogalactoside], for which, in series [1], the “Result in an ordinary safety test” value is “does not have any problem in an ordinary safety test”. For the same compound, the “Moisture-retaining property (rate of decrease in water content)” value in series [2] was “did not suppress water volatilization in a dry state and exhibited an insufficient moisture-retaining action”. Further, in series [3], the “Effect on epidermal thickening (in words)” value was “had an effect of alleviating the epidermal thickening owing to photoaging” and the “Effect on wrinkles / wrinkle score (in words)” value is “effective for wrinkles induced by photoaging”.
